Converted amounts (≈) assume the structure as drawn. Values belong to the molecule of their own block, whether it stands above or below them.
Experiments:
[1] = tested on: Streptococcus mutans; assay: Antibacterial activity against Streptococcus mutans ATCC 25175 assessed as effect on planktonic growth at 21.9 ug/ml after 20 hrs relative to control; type: functional
[2] = tested on: Streptococcus mutans; assay: Antibacterial activity against Streptococcus mutans ATCC 25175 assessed as effect on planktonic growth at 43.8 ug/ml after 20 hrs relative to control; type: functional
[3] = tested on: Streptococcus mutans; assay: Antibacterial activity against Streptococcus mutans ATCC 25175 assessed as effect on planktonic growth at 87.5 ug/ml after 20 hrs relative to control; type: functional
[4] = tested on: Staphylococcus aureus; assay: Antibacterial activity against Staphylococcus aureus ATCC 25923 assessed as effect on planktonic growth at 0.17 ug/ml after 20 hrs relative to control; type: functional
[5] = tested on: Staphylococcus aureus; assay: Antibacterial activity against Staphylococcus aureus ATCC 25923 assessed as effect on planktonic growth at 0.34 ug/ml after 20 hrs relative to control; type: functional
[6] = tested on: Staphylococcus aureus; assay: Antibacterial activity against Staphylococcus aureus ATCC 25923 assessed as effect on planktonic growth at 0.68 ug/ml after 20 hrs relative to control; type: functional
[7] = tested on: Staphylococcus aureus; assay: Antibacterial activity against Staphylococcus aureus ATCC 25923 assessed as effect on planktonic growth at 1.37 ug/ml after 20 hrs relative to control; type: functional
[8] = tested on: Staphylococcus aureus; assay: Antibacterial activity against Staphylococcus aureus ATCC 25923 assessed as effect on planktonic growth at 5.5 ug/ml after 20 hrs relative to control; type: functional
[9] = tested on: Staphylococcus aureus; assay: Antibacterial activity against Staphylococcus aureus ATCC 25923 assessed as effect on planktonic growth at 2.73 ug/ml after 20 hrs relative to control; type: functional
[10] = tested on: Staphylococcus aureus; assay: Antibacterial activity against Staphylococcus aureus ATCC 25923 assessed as effect on planktonic growth at 10.9 ug/ml after 20 hrs relative to control; type: functional
[11] = tested on: Staphylococcus aureus; assay: Antibacterial activity against Staphylococcus aureus ATCC 25923 assessed as effect on planktonic growth at 21.9 ug/ml after 20 hrs relative to control; type: functional
[12] = tested on: Staphylococcus aureus; assay: Antibacterial activity against Staphylococcus aureus ATCC 25923 assessed as effect on planktonic growth at 43.8 ug/ml after 20 hrs relative to control; type: functional
[13] = tested on: Staphylococcus aureus; assay: Antibacterial activity against Staphylococcus aureus ATCC 25923 assessed as effect on planktonic growth at 87.5 ug/ml after 20 hrs relative to control; type: functional
[14] = tested on: Pseudomonas aeruginosa; assay: Antibacterial activity against Pseudomonas aeruginosa ATCC 27853 assessed as effect on planktonic growth at 0.17 ug/ml after 20 hrs relative to control; type: functional
[15] = tested on: Pseudomonas aeruginosa; assay: Antibacterial activity against Pseudomonas aeruginosa ATCC 27853 assessed as effect on planktonic growth at 0.34 ug/ml after 20 hrs relative to control; type: functional
[16] = tested on: Pseudomonas aeruginosa; assay: Antibacterial activity against Pseudomonas aeruginosa ATCC 27853 assessed as effect on planktonic growth at 0.68 ug/ml after 20 hrs relative to control; type: functional
[17] = tested on: Pseudomonas aeruginosa; assay: Antibacterial activity against Pseudomonas aeruginosa ATCC 27853 assessed as effect on planktonic growth at 1.37 ug/ml after 20 hrs relative to control; type: functional
[18] = tested on: Pseudomonas aeruginosa; assay: Antibacterial activity against Pseudomonas aeruginosa ATCC 27853 assessed as effect on planktonic growth at 2.73 ug/ml after 20 hrs relative to control; type: functional
[19] = tested on: Pseudomonas aeruginosa; assay: Antibacterial activity against Pseudomonas aeruginosa ATCC 27853 assessed as effect on planktonic growth at 5.5 ug/ml after 20 hrs relative to control; type: functional
[20] = tested on: Pseudomonas aeruginosa; assay: Antibacterial activity against Pseudomonas aeruginosa ATCC 27853 assessed as effect on planktonic growth at 10.9 ug/ml after 20 hrs relative to control; type: functional
[21] = tested on: Pseudomonas aeruginosa; assay: Antibacterial activity against Pseudomonas aeruginosa ATCC 27853 assessed as effect on planktonic growth at 21.9 ug/ml after 20 hrs relative to control; type: functional
[22] = tested on: Pseudomonas aeruginosa; assay: Antibacterial activity against Pseudomonas aeruginosa ATCC 27853 assessed as effect on planktonic growth at 43.8 ug/ml after 20 hrs relative to control; type: functional
[23] = tested on: Pseudomonas aeruginosa; assay: Antibacterial activity against Pseudomonas aeruginosa ATCC 27853 assessed as effect on planktonic growth at 87.5 ug/ml after 20 hrs relative to control; type: functional
[24] = tested on: Staphylococcus epidermidis; assay: Antibacterial activity against Staphylococcus epidermidis ATCC 35547 assessed as effect on planktonic growth at 0.17 ug/ml after 20 hrs relative to control; type: functional
[25] = tested on: Staphylococcus epidermidis; assay: Antibacterial activity against Staphylococcus epidermidis ATCC 35547 assessed as effect on planktonic growth at 0.34 ug/ml after 20 hrs relative to control; type: functional
[26] = tested on: Staphylococcus epidermidis; assay: Antibacterial activity against Staphylococcus epidermidis ATCC 35547 assessed as effect on planktonic growth at 0.68 ug/ml after 20 hrs relative to control; type: functional
[27] = tested on: Staphylococcus epidermidis; assay: Antibacterial activity against Staphylococcus epidermidis ATCC 35547 assessed as effect on planktonic growth at 1.37 ug/ml after 20 hrs relative to control; type: functional
[28] = tested on: Staphylococcus epidermidis; assay: Antibacterial activity against Staphylococcus epidermidis ATCC 35547 assessed as effect on planktonic growth at 2.73 ug/ml after 20 hrs relative to control; type: functional
[29] = tested on: Staphylococcus epidermidis; assay: Antibacterial activity against Staphylococcus epidermidis ATCC 35547 assessed as effect on planktonic growth at 5.5 ug/ml after 20 hrs relative to control; type: functional
[30] = tested on: Staphylococcus epidermidis; assay: Antibacterial activity against Staphylococcus epidermidis ATCC 35547 assessed as effect on planktonic growth at 10.9 ug/ml after 20 hrs relative to control; type: functional
[31] = tested on: Staphylococcus epidermidis; assay: Antibacterial activity against Staphylococcus epidermidis ATCC 35547 assessed as effect on planktonic growth at 21.9 ug/ml after 20 hrs relative to control; type: functional
[32] = tested on: Staphylococcus epidermidis; assay: Antibacterial activity against Staphylococcus epidermidis ATCC 35547 assessed as effect on planktonic growth at 43.8 ug/ml after 20 hrs relative to control; type: functional
[33] = tested on: Staphylococcus epidermidis; assay: Antibacterial activity against Staphylococcus epidermidis ATCC 35547 assessed as effect on planktonic growth at 87.5 ug/ml after 20 hrs relative to control; type: functional
[34] = tested on: Staphylococcus aureus; assay: Antibacterial activity against Staphylococcus aureus ATCC 25923 assessed as inhibition of biofilm formation after 20 hrs by crystal-violet staining method; type: functional, organism-based; conditions: ATCC 25923, 20 h
[35] = tested on: Staphylococcus aureus; assay: Antibacterial activity against Staphylococcus aureus ATCC 25923 assessed as inhibition of biofilm formation at 44 ug/ml after 20 hrs by crystal-violet staining method relative to control; type: functional; conditions: ATCC 25923, 20 h
[36] = tested on: Pseudomonas aeruginosa; assay: Antibacterial activity against Pseudomonas aeruginosa ATCC 27853 assessed as inhibition of biofilm formation after 20 hrs by crystal-violet staining method; type: functional, organism-based; conditions: for IC50: ATCC 27853, 20 h
[37] = tested on: Staphylococcus epidermidis; assay: Antibacterial activity against Staphylococcus epidermidis ATCC 35547 assessed as inhibition of biofilm formation after 20 hrs by crystal-violet staining method; type: functional, organism-based
[38] = tested on: Streptococcus mutans; assay: Antibacterial activity against Streptococcus mutans ATCC 25175 assessed as effect on planktonic growth at 0.17 ug/ml after 20 hrs relative to control; type: functional
[39] = tested on: Streptococcus mutans; assay: Antibacterial activity against Streptococcus mutans ATCC 25175 assessed as effect on planktonic growth at 0.34 ug/ml after 20 hrs relative to control; type: functional
[40] = tested on: Streptococcus mutans; assay: Antibacterial activity against Streptococcus mutans ATCC 25175 assessed as effect on planktonic growth at 0.68 ug/ml after 20 hrs relative to control; type: functional
[41] = tested on: Streptococcus mutans; assay: Antibacterial activity against Streptococcus mutans ATCC 25175 assessed as effect on planktonic growth at 1.37 ug/ml after 20 hrs relative to control; type: functional
[42] = tested on: Streptococcus mutans; assay: Antibacterial activity against Streptococcus mutans ATCC 25175 assessed as effect on planktonic growth at 2.73 ug/ml after 20 hrs relative to control; type: functional
[43] = tested on: Streptococcus mutans; assay: Antibacterial activity against Streptococcus mutans ATCC 25175 assessed as effect on planktonic growth at 5.5 ug/ml after 20 hrs relative to control; type: functional
[44] = tested on: Streptococcus mutans; assay: Antibacterial activity against Streptococcus mutans ATCC 25175 assessed as effect on planktonic growth at 10.9 ug/ml after 20 hrs relative to control; type: functional
[45] = tested on: Staphylococcus epidermidis; assay: Induction of biofilm formation in Staphylococcus epidermidis ATCC 35547 at 87.5 ug/ml after 20 hrs by crystal-violet staining method relative to control; type: organism-based

- IC50 [34]: 6.8 µM
- IC50 [36]: > 87.5 µg/mL
- IC50 ([37]; ATCC 35547, 20 h): 83.4 µg/mL (≈ 153 µM)
Structure (SMILES): COc1ccc(Cl)cc1C1=C(Br)C(=O)N(CC(C)C)C1(O)Cc1ccccc1Br (stereo not given)
- Activity [1]: 15.4%
- Activity [2]: 24.4%
- Activity [3]: 24.4%
- Activity [4]: 8.4%
- Activity [5]: 6.2%
- Activity [6]: 3.7%
- Activity [7]: 5.9%
- Activity [8]: -9%
- Activity [9]: -1.3%
- Activity [10]: -2.4%
- Activity [11]: 4.2%
- Activity [12]: 12.8%
- Activity [13]: 14.3%
- Activity [14]: -7.2%
- Activity [15]: -9.6%
- Activity [16]: -6.4%
- Activity [17]: -5.6%
- Activity [18]: -13.8%
- Activity [19]: -13.5%
- Activity [20]: -14.9%
- Activity [21]: -9.2%
- Activity [22]: 5.7%
- Activity [23]: 24.8%
- Activity [24]: 9.4%
- Activity [25]: 2.6%
- Activity [26]: 9.4%
- Activity [27]: 7.8%
- Activity [28]: 21.5%
- Activity [29]: 6.4%
- Activity [30]: 4.2%
- Activity [31]: 13.2%
- Activity [32]: 28.8%
- Activity [33]: 17.6%
- inhibition at 44 µg/mL [35]: 53.1%
- inhibition [36]: Dose-dependent effect
- inhibition [37]: Dose-dependent effect
- Activity [38]: -16.1%
- Activity [39]: -13.8%
- Activity [40]: -7.7%
- Activity [41]: 3.5%
- Activity [42]: 1.6%
- Activity [43]: 9%
- Activity [44]: 9%

- Activity [45]: 46.9%
- IC50 [36]: 2.2 µg/mL (≈ 4.45 µM)
Structure (SMILES): COc1cccc(CC2(O)C(c3cc(Cl)ccc3OC)=C(Br)C(=O)N2CC(C)C)c1 (stereo not given)
- Activity [1]: -0.6%
- Activity [2]: 6.5%
- Activity [3]: 9%
- Activity [4]: 2%
- Activity [5]: 0.7%
- Activity [6]: -5%
- Activity [7]: 6.8%
- Activity [8]: -8.1%
- Activity [9]: 2.3%
- Activity [10]: -9.9%
- Activity [11]: -15.1%
- Activity [12]: 0.7%
- Activity [13]: 22.1%
- Activity [14]: -4%
- Activity [15]: -5.8%
- Activity [16]: -6.7%
- Activity [17]: -4.2%
- Activity [18]: -18.9%
- Activity [19]: -5.5%
- Activity [20]: -3.3%
- Activity [21]: -3.7%
- Activity [22]: -2.3%
- Activity [23]: -3.6%
- Activity [24]: 10%
- Activity [25]: 3.3%
- Activity [26]: 5.1%
- Activity [27]: 4.7%
- Activity [28]: 3.4%
- Activity [29]: 6.4%
- Activity [30]: -0.3%
- Activity [31]: 6.9%
- Activity [32]: 15.7%
- Activity [33]: 14.5%
- inhibition [36]: Dose-dependent effect
- inhibition [37]: Dose-dependent effect
- Activity [38]: -14%
- Activity [39]: -12.5%
- Activity [40]: -12.5%
- Activity [41]: -8.7%
- Activity [42]: 0.3%
- Activity [43]: 1.6%
- Activity [44]: -3.7%
